Source: patent publication US11365192B2, “Pyridine compound substituted with azole” (TAISHO PHARMACEUTICAL CO., LTD., priority 2017, dated 2022)

Legend:
Assay type in all cases: biochemical
human CYP4F2 = human CYP4F2 (Homo sapiens (Human), UniProt P78329); test: Inhibition test against 20-HETE producing enzyme CYP4F2 (luciferine derivative, luminescence)
Procedure, shortened: (§1)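 IC50 derived from luminescence after 60 min at room temperature with membrane fractions of E. coli expressing each human CYP (100 μg/mL protein). For CYP4A11, 60 μM luciferin derivative in 100 mM Tris-HCl pH 7.5 with NADPH-regenerating system; for CYP4F2, 2.5 μM substrate, 1 mM NADPH, 50 mM KPO4 pH 7.4.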

human CYP4A11 = human CYP4A11 (Homo sapiens (Human), UniProt Q02928); test: Inhibition test against 20-HETE producing enzyme CYP4A11 (luciferine derivative, luminescence)
Procedure, shortened: as §1

[1] = tested on: 20-HETE producing enzymes, human kidney microsome; test: Inhibition test against 20-HETE producing enzymes using human kidney microsomes (LC-MS/MS); settings: for inhibitory activities against 20-HETE producing enzymes compared to compound A and compound B: comparison with compound A and compound B of WO03/022821, human kidney microsomes; for IC50: human kidney microsome 250 μg/mL protein, 20 μM arachidonic acid, 37° C. 45 minutes, LC-MS/MS
Protocol: (1) Inhibition Test for Each Compound of the Present Invention Against 20-HETE Producing Enzymes Using Human Kidney Microsomes
The reaction solution containing each compound [final concentration of 100 mM, KPO4 (pH 7.4), 20 μM Arachidonic acid, 4 mM NADPH] was added to the human kidney microsome (250 μg/mL protein). Following this, the microsome was left to stand at 37° C. for 45 minutes to perform 20-HETE producing reaction. After adding formic acid to stop the reaction, 9 times amount of acetonitrile was added, and deproteinization was carried out by centrifugation (1000 rpm, 4° C., 10 minutes). After that, the peak area value of 20-HETE was measured using a liquid chromatograph-tandem mass spectrometer (LC-MS/MS), and by using that value, the percent inhibition of 20-HETE producing enzyme (%) was calculated according to the equation described below, and the 50% inhibitory concentration (IC50 value) for each compound was calculated. Percent inhibition of 20-HETE producing enzyme (%)=[1−(A−B)/(C−B)]*100
A: Peak area value of 20-HETE/peak area value of internal standard substance with addition of compound
B: Peak area value of 20-HETE/peak area value of internal standard substance without addition of compound and NADPH
C: Peak area value of 20-HETE/peak area value of internal standard substance without addition of compound
(3) Inhibition Test for Compound a and Compound B Disclosed in WO03/022821 Against 20-HETE Producing Enzymes Using Human Kidney Microsomes
For compound A and compound B disclosed in WO03/022821, which have been described above, the 50% inhibitory concentration (IC50 value) against 20-HETE producing enzymes was calculated according to the method described in Test Example 2.
On the other hand, as described above, in Test Example 2, nonradioactive arachidonic acid was used as a substrate for 20-HETE producing reaction, and the amount of 20-HETE produced was measured using LC-MS/MS. In this case, the concentration of arachidonic acid, the substrate, is 20 μM.
In recent years, it is recommended that the substrate concentration for calculating the IC50 value be set at the Km value (Assay Guidance Manual, Sittampalam et. al. (URL: http://www.ncbi.nlm.nih.gov/books/NBK53196/)). According to this, in Test Example 2 described above, human kidney microsomes were used to calculate the Km value, and the calculated Km value of 20 μM was set as the concentration of the substrate, arachidonic acid.

human CYP4F22 = human CYP4F22 (Homo sapiens (Human), UniProt Q6NT55); test: CYP4F22 selectivity test; settings: cell membrane fraction expressing human CYP4F22, 14 μM luciferine derivative, 50 minutes
Protocol: (1) CYP4F22 Selectivity Test for Each Compound of the Present Invention
(§2) The reaction solution containing each compound [final concentration of 100 mM KPO4 (pH 7.4), 14 μM luciferine derivative, and 1 mM NADPH] was added to a cell membrane fraction (30 μg/mL protein) in which human CYP4F22 had been expressed. Following this, the cell membrane fraction was left to stand at room temperature for 50 minutes to perform an enzymatic reaction. After the reaction, a luciferine detection reagent was added, and the luminescence value was measured using a plate reader. By using that value, the percent inhibition of the enzymatic reaction of CYP4F22(%) was calculated according to the equation described below, and the 50% inhibitory concentration (IC50 value) for each compound was calculated. Percent inhibition of CYP4F22 enzyme (%)=[1−(A−B)/(C−B)]*100
(§3) A: Luminescence value with addition of compound
(§4) B: Luminescence value without addition of compound and enzyme
(§5) C: Luminescence value without addition of compound

human CYP4V2 = human CYP4V2 (Homo sapiens (Human), UniProt Q6ZWL3); test: CYP4V2 selectivity test; settings: cell membrane fraction expressing human CYP4V2, 7 μM luciferine derivative, 40 minutes
Protocol: (3) CYP4V2 Selectivity Test for Each Compound of the Present Invention
as §2, with “7.4), 7” for “7.4), 14”, “fraction (38” for “fraction (30”, “human CYP4V2” for “human CYP4F22”, “for 40” for “for 50”, “of CYP4V2(%)” for “of CYP4F22(%)”, “of CYP4V2” for “of CYP4F22”
as §3, §4, §5

[2] = E. coli membrane fraction expressing human CYP4F2, 2.5 μM luciferine derivative, room temperature 60 minutes
[3] = E. coli membrane fraction expressing human CYP4A11, 60 μM luciferine derivative, room temperature 60 minutes
[4] = human CYP4F2, luciferine derivative, luminescence
[5] = human CYP4A11, luciferine derivative, luminescence

human CYP4F2, sequence (P78329 5-520): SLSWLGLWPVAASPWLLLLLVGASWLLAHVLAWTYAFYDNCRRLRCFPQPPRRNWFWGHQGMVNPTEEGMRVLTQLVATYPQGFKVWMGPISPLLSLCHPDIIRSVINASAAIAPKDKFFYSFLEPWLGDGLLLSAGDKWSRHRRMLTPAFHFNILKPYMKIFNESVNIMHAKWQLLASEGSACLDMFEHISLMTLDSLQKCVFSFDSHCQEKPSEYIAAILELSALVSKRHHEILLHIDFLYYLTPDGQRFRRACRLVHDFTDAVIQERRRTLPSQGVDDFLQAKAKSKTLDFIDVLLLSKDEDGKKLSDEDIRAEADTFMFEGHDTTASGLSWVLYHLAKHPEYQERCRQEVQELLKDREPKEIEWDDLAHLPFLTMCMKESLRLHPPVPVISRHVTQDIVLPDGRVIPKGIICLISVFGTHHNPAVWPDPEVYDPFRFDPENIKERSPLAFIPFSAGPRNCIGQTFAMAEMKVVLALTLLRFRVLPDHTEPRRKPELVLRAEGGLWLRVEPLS
human CYP4F22, sequence (Q6NT55 whole entry): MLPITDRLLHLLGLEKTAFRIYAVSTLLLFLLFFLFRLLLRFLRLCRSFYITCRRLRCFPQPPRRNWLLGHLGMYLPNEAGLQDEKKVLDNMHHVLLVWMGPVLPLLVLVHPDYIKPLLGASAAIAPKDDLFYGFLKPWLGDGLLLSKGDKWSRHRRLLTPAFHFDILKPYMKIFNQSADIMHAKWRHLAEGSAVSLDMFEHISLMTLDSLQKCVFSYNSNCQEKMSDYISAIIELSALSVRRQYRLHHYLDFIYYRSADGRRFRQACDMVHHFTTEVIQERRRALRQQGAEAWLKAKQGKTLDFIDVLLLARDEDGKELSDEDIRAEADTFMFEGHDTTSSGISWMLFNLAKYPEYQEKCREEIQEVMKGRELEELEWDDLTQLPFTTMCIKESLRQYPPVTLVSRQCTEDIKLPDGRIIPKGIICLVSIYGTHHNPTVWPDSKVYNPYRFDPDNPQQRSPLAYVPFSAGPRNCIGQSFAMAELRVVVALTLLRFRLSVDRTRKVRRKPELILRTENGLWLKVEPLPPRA
human CYP4V2, sequence (Q6ZWL3 whole entry): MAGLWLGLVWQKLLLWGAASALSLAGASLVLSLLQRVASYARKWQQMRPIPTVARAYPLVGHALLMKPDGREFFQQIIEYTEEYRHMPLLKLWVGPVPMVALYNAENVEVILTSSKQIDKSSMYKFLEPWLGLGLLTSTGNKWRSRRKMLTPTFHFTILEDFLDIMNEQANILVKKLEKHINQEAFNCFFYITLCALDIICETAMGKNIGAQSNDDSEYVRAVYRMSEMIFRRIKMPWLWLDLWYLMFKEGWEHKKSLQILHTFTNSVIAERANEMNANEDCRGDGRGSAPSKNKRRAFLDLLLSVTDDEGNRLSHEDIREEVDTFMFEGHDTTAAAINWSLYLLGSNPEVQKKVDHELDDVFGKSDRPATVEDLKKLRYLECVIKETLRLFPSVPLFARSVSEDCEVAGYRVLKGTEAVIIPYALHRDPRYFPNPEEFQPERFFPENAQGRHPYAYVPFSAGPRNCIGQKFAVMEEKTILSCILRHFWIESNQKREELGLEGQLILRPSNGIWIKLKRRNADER
human CYP4A11, sequence (Q02928 5-519): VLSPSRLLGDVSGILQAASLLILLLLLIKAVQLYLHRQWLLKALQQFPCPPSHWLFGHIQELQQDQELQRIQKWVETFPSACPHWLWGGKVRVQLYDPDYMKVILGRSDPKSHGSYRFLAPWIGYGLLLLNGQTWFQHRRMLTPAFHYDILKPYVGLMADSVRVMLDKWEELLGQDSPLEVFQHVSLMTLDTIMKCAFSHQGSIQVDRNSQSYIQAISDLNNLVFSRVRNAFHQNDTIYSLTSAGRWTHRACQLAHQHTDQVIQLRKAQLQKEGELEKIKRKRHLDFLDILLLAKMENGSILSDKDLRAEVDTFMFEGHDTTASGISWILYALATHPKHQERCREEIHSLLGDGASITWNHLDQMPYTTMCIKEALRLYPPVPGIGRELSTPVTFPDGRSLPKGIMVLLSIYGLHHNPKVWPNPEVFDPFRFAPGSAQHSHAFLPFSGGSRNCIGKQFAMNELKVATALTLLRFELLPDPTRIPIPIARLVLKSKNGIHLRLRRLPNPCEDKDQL

| Compound | IC50 (human CYP4F2; [2]) | IC50 (human CYP4A11; [3]) | inhibitory activities against 20-HETE producing enzymes compared to compound A and compound B [1] | IC50 [1] | IC50 (human CYP4F2; [4]) | IC50 (human CYP4A11; [5]) | IC50 (human CYP4F22) | IC50 (human CYP4V2) |
| --- | --- | --- | --- | --- | --- | --- | --- | --- |
| O=C(O)C1CC1c1cccc(COc2ccc(-c3ccn[nH]3)nc2)c1 (single isomer, unassigned) [Example 26-2, trans-2-[3-[[6-(1H-Pyrazol-5-yl)-3-pyridinyl]oxymethyl]phenyl]-1-cyclopropanecarboxylic Acid (Optically Active Substance)] | 890 nM | 23 nM | stronger inhibitory activities | 26 nM | – | – | – | – |
| O=C(O)C1CC1c1cccc(COc2ccc(-c3ccn[nH]3)nc2)c1 (single isomer, unassigned) [Example 26-3, trans-2-[3-[[6-(1H-Pyrazol-5-yl)-3-pyridinyl]oxymethyl]phenyl]-1-cyclopropanecarboxylic Acid (Optically Active Substance, Enantiomer of Compound of Example 26-2)] | 1500 nM | 24 nM | stronger inhibitory activities | 30 nM | – | – | – | – |
| CC(=O)N1CCN(CCOc2ccc(-c3ccn[nH]3)cc2)CC1 [Compound A, reference compound] | 1000 nM | 11000 nM | – | 408 nM | – | – | – | – |
| CCOC(=O)N1CCN(CCOc2ccc(-c3ccn[nH]3)cn2)CC1 [Compound B, reference compound] | 36000 nM | > 50000 nM | – | 15600 nM | – | – | – | – |
| O=C(O)C12CC(CCCCCCOc3ccc(-c4ccn[nH]4)nc3)(C1)C2 [Example 1-53] | 330 nM | 61 nM | stronger inhibitory activities | 14 nM | – | – | – | – |
| O=C(O)C1CCc2ccc(COc3ccc(-c4ccn[nH]4)nc3)cc2C1 (centres unmarked) [Example 1-56] | 170 nM | 27 nM | stronger inhibitory activities | 20 nM | – | – | – | – |
| CC(C)(COCCCCCCOc1ccc(-c2ccn[nH]2)nc1)C(=O)O [Example 1-57, 2,2-Dimethyl-3-[6-[[6-(1H-pyrazol-5-yl)-3-pyridinyl]oxy]hexoxy]propanoic Acid] | 340 nM | 110 nM | stronger inhibitory activities | 19 nM | – | – | – | – |
| O=C(O)C1COc2ccc(COc3ccc(-c4ccn[nH]4)nc3)cc2C1 (centres unmarked) [Example 1-68] | 640 nM | 28 nM | stronger inhibitory activities | 26 nM | – | – | – | – |
| O=C(O)C1CCc2ccc(COc3ccc(-c4ccn[nH]4)nc3)cc2O1 (centres unmarked) [Example 1-70] | 140 nM | 62 nM | stronger inhibitory activities | 37 nM | – | – | – | – |
| O=C(O)C1(CCCCCCCCOc2ccc(-c3ccn[nH]3)nc2)CCOCC1 [Example 3-1, 4-[8-[[6-(1H-Pyrazol-5-yl)-3-pyridinyl]oxy]octyl]-4-oxanecarboxylic Acid] | 24 nM | 190 nM | stronger inhibitory activities | 10 nM | – | – | – | – |
| O=C(O)c1ccc2c(c1)CC(COc1ccc(-c3ccn[nH]3)nc1)CC2 (centres unmarked) [Example 5-1, 7-[[6-(1H-Pyrazol-5-yl)-3-pyridinyl]oxymethyl]-5,6,7,8-tetrahydronaphthalene-2-carboxylic Acid] | 33 nM | 22 nM | stronger inhibitory activities | 8.2 nM | – | – | – | – |
| O=C(O)C1CCCN(S(=O)(=O)c2cccc(COc3ccc(-c4ccn[nH]4)nc3)c2)C1 (centres unmarked) [Example 22-9] | 180 nM | 45 nM | stronger inhibitory activities | 15 nM | – | – | – | – |
| O=C(O)C1(F)CCN(S(=O)(=O)c2cccc(COc3ccc(-c4ccn[nH]4)nc3)c2)C1 (centres unmarked) [Example 22-11] | 700 nM | 28 nM | stronger inhibitory activities | 15 nM | – | – | – | – |
| CC(C)(COc1cc(COc2ccc(-c3ccn[nH]3)nc2)ccn1)C(=O)O [Example 22-14] | 380 nM | 70 nM | stronger inhibitory activities | 32 nM | – | – | – | – |
| O=C(O)C1(OCCCCCCCCOc2ccc(-c3ccn[nH]3)nc2)CCOCC1 [Example 68-1, 4-[8-[[6-(1H-Pyrazol-5-yl)-3-pyridinyl]oxy]octoxy]-4-oxanecarboxylic Acid] | 39 nM | 620 nM | stronger inhibitory activities | 6.9 nM | – | – | – | – |
| O=C(O)[C@@H]1C[C@@H]1c1ccc(CCOc2ccc(-c3ccn[nH]3)nc2)cc1 [Example 70-10-1] | – | – | – | 6.4 nM | 120 nM | 160 nM | 2300 nM | 3300 nM |
| CC(C)(OCCCCCCCOc1ccc(-c2cnco2)nc1)C(=O)O [Example 76-1, 2-Methyl-2-[7-[6-(1,3-oxazol-5-yl)pyridin-3-yl]oxyheptoxy]propanoic Acid] | – | – | – | – | 1500 nM | 740 nM | – | – |

Results, then the molecule that gave them:

| IC50 (human CYP4F2; [2]) | IC50 (human CYP4A11; [3]) | inhibitory activities against 20-HETE producing enzymes compared to compound A and compound B [1] | IC50 [1] | IC50 (human CYP4F2; [4]) | IC50 (human CYP4A11; [5]) | IC50 (human CYP4F22) | IC50 (human CYP4V2) | Compound |
| --- | --- | --- | --- | --- | --- | --- | --- | --- |
| – | – | – | 6 nM | 83 nM | 110 nM | 1900 nM | 2100 nM | O=C(O)C1CC1c1ccc(CCOc2ccc(-c3ccn[nH]3)nc2)c(F)c1 (single isomer, unassigned) [Example 71-18] |
| – | – | – | 16 nM | 320 nM | 50 nM | 1400 nM | 2900 nM | O=C(O)C1CC1c1cccc(CCOc2ccc(-c3ccn[nH]3)nc2)c1 (centres unmarked) [Example 70-7] |
| – | – | – | 11 nM | 100 nM | 230 nM | 370 nM | 1200 nM | O=C(O)C1(OCCCCCCCOc2ccc(-c3ccn[nH]3)nc2)COC1 [Example 71-6] |
| – | – | – | – | 29000 nM | 43 nM | – | – | CN(C(C)(C)C(=O)O)S(=O)(=O)c1cccc(COc2ccc(-c3ccn[nH]3)nc2)c1 [Example 75-4] |
| – | – | – | – | 780 nM | 720 nM | – | – | CC(C)(COc1ccc(COc2ccc(-c3ccn[nH]3)nc2)cn1)C(=O)O [Example 75-5] |
| – | – | – | – | 1700 nM | 180 nM | – | – | CC(C)(COc1cccc(COc2ccc(-c3ccn[nH]3)nc2)n1)C(=O)O [Example 75-6] |
